{"source": "patent US12076308B2", "about": "“Terpene control in scaleable cannabinoid medicinal formulations” (priority 2015, dated 2024)", "key": {"[1]": {"test_system": "pancreatic cancer", "conditions": "cited from earlier work; for tumor volume over time: mice, repeated injections, compared with control group curve CRTL; for effect on pancreatic cancer cells/tumors in mice: reported by Donadelli, high dosages of CB1 ligand"}, "[2]": {"assay": "War veterans with PTSD given cannabinoid infused chocolates", "format": "in vivo, human", "conditions": "THC alone", "procedure": "In a separate set of observations and tests, war veterans suffering from post-traumatic stress disorder (PTSD) were observed purchasing large amounts of un-tested hashish from local dispensaries on sale days. After observing this, samples of this hashish were tested. […] Veterans suffering from PTSD received cannabinoid infused chocolates with controlled dosages. This process identified that chocolates infused with 44 mg of THC and 4 mg of CBD were effective in treating these veterans PTSD. Information reported by veterans identified that many of them were also suffering from pain and had been consuming opiates to combat the pain. The opiates that these veterans were taking reportedly exacerbated PTSD symptoms. […] Patients of Laguna Honda Hospital in California were also provided medications that included both THC and CBD and reported benefit."}}, "note": "Where two headings read alike, the source gives them in different places.", "data": [{"molecule": "Nc1ccn([C@@H]2O[C@H](CO)[C@@H](O)C2(F)F)c(=O)n1", "note": "[Gemcitabine]", "values": [{"measurement": "tumor volume over time", "setting": "[1]", "value": "grew at even a slower rate"}]}, {"molecule": "CCCCCc1cc(O)c2c(c1)OC(C)(C)[C@@H]1CCC(C)=C[C@@H]21", "note": "[THC, tetrahydrocannabinol]", "values": [{"measurement": "benefit when treating pain combined with PTSD, versus combined THC/CBD medication", "setting": "[2]", "value": "either not effective or provided limited benefits"}, {"measurement": "psychotic side effects associated with PTSD", "setting": "[2]", "value": "increased psychotic side effects"}]}, {"molecule": "Cc1c(C(=O)NN2CCCCC2)nn(-c2ccc(Cl)cc2Cl)c1-c1ccc(Cl)cc1", "note": "[SR1, Rimonabant]", "values": [{"measurement": "tumor volume over time", "setting": "[1]", "value": "grew at a slower rate"}, {"measurement": "effect on pancreatic cancer cells/tumors in mice", "setting": "[1]", "value": "reducing pancreatic cancer tumors"}, {"measurement": "effect on pancreatic cancer cells/tumors in mice", "setting": "[1]; listed as Rimonabant", "value": "shrunk pancreatic cancer cells"}]}]}
